# Laboratory results as given in patent US10364256B2 (GlaxoSmithKline Intellectual Property Development Limited, priority 2015, dated 2019).
# Experiments:
# [1] = target: T1, full length Keap1 protein / full length NRF2 protein (Homo sapiens, UniProt Q14145); experiment: NRF2-Keap1 TR-FRET Low Protein Assay; assay type: binding; settings: 1.25 nM Keap1 FlagHis and 2.5 nM biotin-NRF2 added
# T1 construct: full length NRF2 protein and full length Keap1 protein (Keap1 exists a dimer) are used; His
# Procedure, shortened: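 Flag-tagged full-length Keap1 was preincubated with compound (3-fold series) for 2.25 h at 37 °C in Tris pH 8.0/MgCl2/NaCl/BSA/DTT/CHAPS. Biotin-Avi-NRF2 (added at 2.5 nM) was then bound for 1.25 h at 4 °C. Eu-streptavidin/anti-Flag-APC TR-FRET (665/615 nm) was read after 1 h at RT, and pIC50 came from a four-parameter fit.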
# [2] = target: T1, full length Keap1 protein / full length NRF2 protein; experiment: NRF2-Keap1 TR-FRET Assay; assay type: binding; settings: 25 nM Keap1-FlagHis and 50 nM biotin-NRF2 added
# Procedure, shortened: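 Displacement of biotinylated full-length NRF2 from full-length Keap1 read by Eu/APC TR-FRET (665/615 nm) after 1 h detection at RT. Compound, 3-fold series, first incubated with Keap1 at 37 °C for 2.25 h, NRF2 then added at 4 °C for 1.25 h; pIC50 by four-parameter equation.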
# T1 sequence (Q14145 whole entry): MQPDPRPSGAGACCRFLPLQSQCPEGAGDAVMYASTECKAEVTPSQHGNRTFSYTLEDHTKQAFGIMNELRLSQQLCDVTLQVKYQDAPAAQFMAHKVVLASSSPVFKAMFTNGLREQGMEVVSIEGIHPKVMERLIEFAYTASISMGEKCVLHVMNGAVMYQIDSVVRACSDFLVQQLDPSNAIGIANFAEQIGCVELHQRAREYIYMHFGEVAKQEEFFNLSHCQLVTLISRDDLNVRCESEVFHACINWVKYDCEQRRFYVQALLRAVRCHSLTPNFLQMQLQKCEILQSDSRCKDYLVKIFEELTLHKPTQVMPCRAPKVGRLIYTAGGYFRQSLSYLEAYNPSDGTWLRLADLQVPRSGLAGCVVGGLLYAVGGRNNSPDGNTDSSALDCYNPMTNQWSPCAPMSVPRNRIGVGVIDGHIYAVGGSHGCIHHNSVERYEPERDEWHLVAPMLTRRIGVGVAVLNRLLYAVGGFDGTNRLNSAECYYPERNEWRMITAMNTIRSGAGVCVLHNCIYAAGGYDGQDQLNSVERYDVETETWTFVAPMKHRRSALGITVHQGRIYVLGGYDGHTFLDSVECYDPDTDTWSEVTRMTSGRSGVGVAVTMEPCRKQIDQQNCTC
Structure (SMILES),IC50 [1],IC50 [2]
"CCC[C@@H]1CCCCN1C(=O)c1cncc(-c2cccc(-n3ncc(C(=O)O)c3C3CC3c3cn(C)nn3)c2)c1 (stereo partly drawn) [Example 197, 5-(2-(1-Methyl-1H-1,2,3-triazol-4-yl)cyclopropyl)-1-(3-(5-((R)-2-propylpiperidine-1-carbonyl)pyridin-3-yl)phenyl)-1H-pyrazole-4-carboxylic acid]",< 10 nM,10 to 100 nM
"COC1CCCC(COc2cccc(-c3cccc(-n4ncc(C(=O)O)c4[C@H]4C[C@@H]4c4cn(C)nn4)c3)c2)C1 (mixture of isomers) [Example 178, 1-(3′-((3-Methoxycyclohexyl)methoxy)-[1,1′-biphenyl]-3-yl)-5-((1,2-trans)-2-(1-methyl-1H-1,2,3-triazol-4-yl)cyclopropyl)-1H-pyrazole-4-carboxylic acid]",10 to 100 nM,100 to 1000 nM
"CCc1nc(-c2cccc(-c3cccc(-n4ncc(C(=O)O)c4C4CC4)c3)c2)no1 [Example 209, 5-Cyclopropyl-1-(3′-(5-ethyl-1,2,4-oxadiazol-3-yl)-[1,1′-biphenyl]-3-yl)-1H-pyrazole-4-carboxylic Acid]",1000 to 10000 nM,10000 to 100000 nM
"O=C(O)c1cnn(-c2cccc(-c3cccc(-n4ncc5c4CCCC5)c3)c2)c1C1CC1 [Example 62, 5-cyclopropyl-1-(3′-(4,5,6,7-tetrahydro-1H-indazol-1-yl)-[1,1′-biphenyl]-3-yl)-1H-pyrazole-4-carboxylic Acid]",100 to 1000 nM,1000 to 10000 nM
"Cn1cc([C@@H]2C[C@H]2c2c(C(=O)O)cnn2-c2cccc(-c3cccc(OC[C@H]4CC[C@H](C(F)(F)F)CC4)c3)c2)nn1 (racemic) [Example 146, 5-((1,2-trans)-2-(1-Methyl-1H-1,2,3-triazol-4-yl)cyclopropyl)-1-(3′-(((1r,4R)-4-(trifluoromethyl)cyclohexyl)methoxy)-[1,1′-biphenyl]-3-yl)-1H-pyrazole-4-carboxylic acid]",10 to 100 nM,100 to 1000 nM
"CCC[C@@H]1CCCCN1C(=O)c1cccc(-c2cccc(-n3ncc(C(=O)O)c3[C@H]3C[C@@H]3c3cn(CC)nn3)c2)c1 (racemic) [Example 201, 5-((1,2-trans)-2-(1-Ethyl-1H-1,2,3-triazol-4-yl)cyclopropyl)-1-(3′-((R)-2-propylpiperidine-1-carbonyl)-[1,1′-biphenyl]-3-yl)-1H-pyrazole-4-carboxylic acid]",< 10 nM,10 to 100 nM
Cn1cc(C2CC2c2c(C(=O)O)cnn2-c2cccc(-c3cccc(OC4CCCCC4)c3)c2)nn1 (stereo not shown) [Example 229],10 to 100 nM,100 to 1000 nM
"CC(Oc1cccc(-c2cccc(-n3ncc(C(=O)O)c3C3CC3c3cn(C)nn3)c2)c1)C1CCOCC1 (stereo not shown) [Example 227, 5-(2-(1-Methyl-1H-1,2,3-triazol-4-yl)cyclopropyl)-1-(3′-(1-(tetrahydro-2H-pyran-4-yl)ethoxy)-[1,1′-biphenyl]-3-yl)-1H-pyrazole-4-carboxylic Acid]",10 to 100 nM,10 to 100 nM
